Measurements published in US4672036A, “Pure cultures of Kibdelsporangium aridum Shearer gen. nov., sp. nov. ATCC 39323 and mutants thereof” (SmithKline Beckman Corporation, priority 1985, dated 1987).
Converted amounts (≈) assume the structure as drawn. “And” between values parts separate entries of the source, which are not always exact repeats. Equal values may be shown once.

Columns and labels:
Strep. faecilis HH34358 = assay type: cell-based; settings: Table A
[1] = system: Proteus mirabilis SK & F 444; assay type: cell-based; settings: Table A
[2] = system: E. coli 12140 (SK & F 809); assay type: cell-based; settings: Table A
[3] = system: Kleb. pneumoniae 4200 (SK & F 798); assay type: cell-based; settings: Table A
[4] = system: Pseudomonas aeruginosa HH63; assay type: cell-based; settings: Table A
[5] = system: Serratia marcesens ATCC 13880; assay type: cell-based; settings: Table A
[6] = system: Proteus morgani SK & F 179; assay type: cell-based; settings: Table A
Providencia SK & F 276 = assay type: cell-based; settings: Table A
[7] = system: Enterobacter cloacae HH31254; assay type: cell-based; settings: Table A
[8] = system: Listeria monocytogenes SK & F 2255; assay type: cell-based; settings: Table A
[9] = system: Staph. aureus SK & F 2613; assay type: cell-based; settings: Table B, Methicillin Sensitive
[10] = system: Bacteroides fragilis ATCC 25285; assay type: cell-based; settings: Table D, Anaerobes
B. fragilis H145 = assay type: cell-based, Bacteroides fragilis; settings: Table D, Anaerobes
B. fragilis SK & F 3060 = assay type: cell-based, Bacteroides fragilis; settings: Table D, Anaerobes
B. loeochii SK & F 3087 = assay type: cell-based; settings: Table D, Anaerobes
[11] = system: B. thetaiotamicron SK & F 3089; assay type: cell-based; settings: Table D, Anaerobes
[12] = system: Fusobacterium nucleatum ATCC 25586; assay type: cell-based; settings: Table D, Anaerobes
Swine in vitro model = test: swine in vitro model (growth promotant activity)
rumen in vitro model [13] = test: rumen in vitro model (growth promotant activity); design: species or system steer
Protocol: The protocol for the rumen in vitro model is analogous to the protocol for the swine in vitro model with the following modifications:
(1) A 400 kg steer is surgically prepared with a rumen cannula.
(2) The animal is fed one time a day with the following ration:
(3) Manipulation of VFA production is described as the production ratio of propionate as a percentage of total VFA produced.
(4) Sampling of the material, via the cannula, is at 120 minutes post feeding.

solubility = assay type: physicochemical
[14] = system: Salmonella gallinarum BC595; settings: Table A
[15] = system: Clostridium perfringens MCP-1; settings: Table D, Anaerobes
C. perfringens MCP-2 = settings: Table D, Anaerobes
[16] = system: C. perfringens ATCC 19408; settings: Table D, Anaerobes
rumen in vitro model [17] = test: rumen in vitro model (growth promotant activity); design: species or system steer; remark: listed apart in the source

CN[C@H]1C(=O)N[C@H]2C(=O)N[C@H](C(=O)N[C@H]3C(=O)N[C@H]4C(=O)N[C@H](C(=O)N[C@H](C(=O)O)c5cc(O)cc(O[C@H]6O[C@H](CO)[C@@H](O)[C@H](O)[C@@H]6O)c5-c5cc4ccc5O)[C@H](O)c4cc(Cl)c(c(Cl)c4)Oc4cc3cc(c4O[C@@H]3O[C@H](C(=O)O)[C@@H](O)[C@H](O)[C@H]3NC(=O)CCCCCCCC(C)C)Oc3ccc(cc3Cl)[C@H]2O)c2cc(cc(O)c2Cl)Oc2cc1ccc2O [AAD 216B]
MIC (Strep. faecilis HH34358): 0.4 µg/mL (≈ 0.222 µM) | MIC [1]: > 100 µg/mL | MIC [2]: > 100 µg/mL | MIC [3]: > 100 µg/mL | MIC [4]: > 100 µg/mL | MIC [5]: > 100 µg/mL | MIC [6]: > 100 µg/mL | MIC (Providencia SK & F 276): > 100 µg/mL | MIC [7]: > 100 µg/mL | MIC [8]: 0.4 µg/mL (≈ 0.222 µM) | MIC [9]: 1.6 µg/mL (≈ 0.887 µM) | MIC [10]: 32 µg/mL (≈ 17.7 µM) | MIC (B. fragilis H145): 16 µg/mL (≈ 8.87 µM) | MIC (B. fragilis SK & F 3060): 16 µg/mL (≈ 8.87 µM) | MIC (B. loeochii SK & F 3087): 16 µg/mL (≈ 8.87 µM) | MIC [11]: 32 µg/mL (≈ 17.7 µM) | MIC [12]: 32 µg/mL (≈ 17.7 µM) | GLU (glucose) (Swine in vitro model): 190 % Control and 184 % Control and 97 % Control | LYS (lysine) (Swine in vitro model): 50 % Control and 55 % Control | VFA (total of volatile fatty acids) (rumen in vitro model [13]): 111 % Control and 121 % Control | solubility (solubility; H2O, methanol, dimethylsulfoxide, dimethylformamide): soluble | solubility (solubility; ethanol, acetonitrile, acetone, diethylether, aliphatic hydrocarbons): insoluble | MIC [14]: > 100 µg/mL | MIC [15]: 0.125 µg/mL (≈ 0.0693 µM) | MIC (C. perfringens MCP-2): 0.125 µg/mL (≈ 0.0693 µM) | MIC [16]: 0.125 µg/mL (≈ 0.0693 µM) | LYS (lysine) (rumen in vitro model [17]): 124 % Control and 107 % Control and 103 % Control
